Source: the supplement of paper PMC10307832

Key:
Assay in all cases: relative viability (nuclei count vs DMSO), 5 days (fraction); higher = more cells survive
Avagacestat + Bortezomib = compound: NC(=O)[C@@H](CCC(F)(F)F)N(Cc1ccc(-c2ncon2)cc1F)S(=O)(=O)c1ccc(Cl)cc1 [Avagacestat] + CC(C)C[C@H](NC(=O)[C@H](Cc1ccccc1)NC(=O)c1cnccn1)B(O)O [Bortezomib] (partner 0.002 µM)
Outline: (§1)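 Relative viability was taken as the ratio of nuclei in treated wells to nuclei in vehicle wells. Lung cancer cell lines in 1536-well plates received compounds by pin tool one day after seeding, either one drug alone or a fixed anchor-drug dose plus five library-drug doses (not always all listed) in √10 steps. Nuclei were counted on 4× images after 5 days of treatment, and values are medians of duplicate plates.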

Avagacestat + Pictilisib = compound: NC(=O)[C@@H](CCC(F)(F)F)N(Cc1ccc(-c2ncon2)cc1F)S(=O)(=O)c1ccc(Cl)cc1 [Avagacestat] + CS(=O)(=O)N1CCN(Cc2cc3nc(-c4cccc5[nH]ncc45)nc(N4CCOCC4)c3s2)CC1 [Pictilisib] (partner 1 µM)
Outline: as §1

Avagacestat + Olaparib = compound: NC(=O)[C@@H](CCC(F)(F)F)N(Cc1ccc(-c2ncon2)cc1F)S(=O)(=O)c1ccc(Cl)cc1 [Avagacestat] + O=C(c1cc(Cc2n[nH]c(=O)c3ccccc23)ccc1F)N1CCN(C(=O)C2CC2)CC1 [Olaparib] (partner 8 µM)
Outline: as §1

Avagacestat + Trametinib = compound: NC(=O)[C@@H](CCC(F)(F)F)N(Cc1ccc(-c2ncon2)cc1F)S(=O)(=O)c1ccc(Cl)cc1 [Avagacestat] + CC(=O)Nc1cccc(-n2c(=O)n(C3CC3)c(=O)c3c(Nc4ccc(I)cc4F)n(C)c(=O)c(C)c32)c1 [Trametinib] (partner 0.02 µM)
Outline: as §1

Cell Line | relative viability (Avagacestat + Bortezomib; first compound 0.08 µM) | relative viability (Avagacestat + Bortezomib; first compound 0.253 µM) | relative viability (Avagacestat + Bortezomib; first compound 0.8 µM) | relative viability (Avagacestat + Bortezomib; first compound 2.53 µM) | relative viability (Avagacestat + Bortezomib; first compound 8 µM) | relative viability (Avagacestat + Pictilisib; first compound 0.08 µM) | relative viability (Avagacestat + Pictilisib; first compound 0.253 µM) | relative viability (Avagacestat + Pictilisib; first compound 0.8 µM) | relative viability (Avagacestat + Pictilisib; first compound 2.53 µM) | relative viability (Avagacestat + Pictilisib; first compound 8 µM) | relative viability (Avagacestat + Olaparib; first compound 0.08 µM) | relative viability (Avagacestat + Olaparib; first compound 0.253 µM) | relative viability (Avagacestat + Olaparib; first compound 0.8 µM) | relative viability (Avagacestat + Olaparib; first compound 2.53 µM) | relative viability (Avagacestat + Olaparib; first compound 8 µM) | relative viability (Avagacestat + Trametinib; first compound 0.08 µM) | relative viability (Avagacestat + Trametinib; first compound 0.253 µM) | relative viability (Avagacestat + Trametinib; first compound 0.8 µM) | relative viability (Avagacestat + Trametinib; first compound 2.53 µM) | relative viability (Avagacestat + Trametinib; first compound 8 µM)
HCC-44 | 1.06 | 1.09 | 0.934 | 0.965 | 0.829 | 0.548 | 0.782 | 0.588 | 0.484 | 0.569 | 1.04 | 1.05 | 1.07 | 1.01 | 1 | 1.05 | 1.02 | 1.05 | 0.98 | 1.03
HCC-78 | 0.508 | 0.51 | 0.514 | 0.313 | 0.366 | 0.179 | 0.222 | 0.244 | 0.192 | 0.235 | 0.786 | 0.948 | 0.632 | 0.67 | 0.712 | 0.878 | 0.933 | 0.888 | 0.789 | 0.726
HCC-366 | – | 1.98 | 1.29 | 1.22 | 0.887 | 0.137 | 0.36 | 0.0944 | 0.082 | 0.132 | 0.45 | 0.461 | 0.378 | 0.402 | 0.308 | 0.446 | 0.547 | 0.346 | 0.297 | 0.27
HCC-827 | 1.09 | 1.13 | 1.13 | 1.05 | 1.12 | 1.13 | 1.08 | 0.797 | 0.941 | 0.897 | 0.724 | 0.734 | 0.687 | 0.607 | 0.656 | 0.602 | 0.509 | 0.543 | 0.531 | 0.507
HOP-62 | 0.783 | 0.819 | 0.727 | 0.513 | 0.709 | 0.825 | 0.778 | 0.525 | 0.573 | 0.857 | 0.411 | 0.502 | 0.211 | 0.564 | 0.371 | 0.381 | 0.372 | 0.4 | 0.323 | 0.304
IA-LM | 1.39 | 1.28 | 0.823 | 0.855 | 1.25 | 1.1 | 1.02 | 0.711 | 0.802 | 0.525 | 1.33 | 1.37 | 1.15 | 1.06 | 1.05 | – | – | – | – | –
LC-2-ad | 1.16 | 1.12 | 1.04 | 0.934 | 0.941 | 0.569 | 0.41 | 0.518 | 0.382 | 0.269 | 0.853 | 0.794 | 0.826 | 0.783 | 0.679 | 0.99 | 0.965 | 0.962 | 0.911 | 0.856
LK-2 | – | – | – | – | – | 0.653 | 0.76 | 0.429 | 0.473 | 0.541 | 0.846 | 0.806 | 0.8 | 0.505 | 0.77 | 1.02 | 0.917 | 0.651 | – | 0.747
NCI-H358 | – | – | – | – | – | 0.356 | 0.337 | 0.493 | 0.349 | 0.385 | 0.704 | 0.559 | 0.655 | 0.596 | 0.562 | 0.14 | 0.114 | 0.129 | 0.127 | 0.119
NCI-H522 | – | – | – | – | – | – | – | – | – | – | 0.566 | 0.715 | 0.656 | 0.691 | 0.621 | 0.748 | 0.74 | 0.734 | 0.72 | 0.795
NCI-H1299 | 1.03 | 1.01 | 1 | 1.01 | 0.991 | 0.806 | 1.19 | 0.81 | 0.736 | 0.578 | 0.97 | 1.07 | 0.975 | 0.979 | 0.929 | – | – | – | – | –
NCI-H1395 | – | – | – | – | – | 0.601 | 0.735 | 0.658 | 0.488 | 0.702 | 0.463 | 0.475 | 0.516 | 0.359 | 0.435 | 1.02 | 1.05 | 0.926 | 0.803 | 0.949
NCI-H1563 | 0.917 | 0.821 | 0.898 | 0.792 | 0.835 | 0.708 | 0.629 | 0.621 | 0.664 | 0.634 | – | – | – | – | – | – | – | – | – | –
NCI-H1648 | – | – | – | – | – | – | – | – | – | – | 0.678 | 0.806 | 0.516 | 0.437 | 0.534 | 0.443 | 0.426 | 0.36 | 0.318 | 0.32
NCI-H1703 | 0.403 | 0.422 | 0.272 | 0.322 | 0.318 | 0.305 | 0.242 | 0.226 | 0.217 | 0.225 | 0.489 | 0.297 | 0.421 | 0.264 | 0.335 | – | – | – | – | –
NCI-H1793 | – | – | – | – | – | 0.381 | 0.325 | 0.326 | 0.413 | 0.27 | 1.04 | 0.601 | 1.11 | 0.827 | 0.616 | 0.52 | 0.536 | 0.459 | 0.519 | 0.479
NCI-H1944 | – | – | – | – | – | 0.349 | 0.374 | 0.357 | 0.32 | 0.33 | 0.492 | 0.448 | 0.46 | 0.4 | 0.421 | 0.426 | 0.436 | 0.373 | 0.394 | 0.382
NCI-H2170 | – | – | – | – | – | 0.329 | 0.309 | 0.295 | 0.278 | 0.326 | 0.78 | 0.722 | 0.612 | 0.64 | 0.582 | 1 | 1.17 | 1 | 0.867 | 0.881
NCI-H2342 | – | – | – | – | – | – | – | – | – | – | 0.441 | 0.384 | 0.486 | 0.458 | 0.451 | 0.725 | 0.771 | 0.784 | 0.766 | 0.693
SK-MES-1 | – | – | – | – | – | 0.377 | 0.387 | 0.306 | 0.294 | 0.288 | 0.905 | 0.772 | 0.88 | 0.667 | 0.646 | 0.564 | 0.567 | 0.522 | 0.515 | 0.494
SW 900 | – | – | – | – | – | – | – | – | – | – | 1.04 | 0.96 | 0.982 | 0.634 | 0.896 | 1.08 | 0.82 | 0.872 | 0.763 | 0.713
